From patent publication US20260257992A1, “AGONISTS OF SMALL HETERODIMER PARTNER FOR CANCER THERAPY” (THE BOARD OF TRUSTEES OF THE UNIVERSITY OF ILLINOIS, priority 2023, published 2026) come the findings set out here.

The test system of one assay is CD8+ T cell expansion. Kind of assay: Suppressiveness of T cells expanded with treated BMDMs (secondary CD8+ expansion). In kind it is cell-based, mouse. The following applies: BMDMs pretreated with compound. An excerpt:
FIG. 6A-6F. […] (A) DSHN-OMe has minimal effects on BMDM viability (N=4-6/group). (B) DSHN-OMe treated BMDMs reduce Treg expansion in a dose related manner, with an increased biological maximum compared to DSHN (data normalized to mean vehicle, which was set at 100%. Non-linear three parameter regression shown, N=4/point). […] Different letters denote P<0.05. […] The percentage of divided CD8+ T cells in the second round was quantified. (N=3-5/group, different letters indicating statistical significance, 1-way ANOVA followed by Tukey). […] Vehicle (DMSO) treated BMDMs are indicated on the right for comparison. (F) Cellular uptake of DSHN-OMe greatly exceeds that of DSHN though time. RAW264.7 cells were treated with 50 µM of vehicle (DMSO) or indicated compound for 4 h, 8 h or 24 h. Compound was washed off, cells were lysed and resulting DSHN and DSHN-OMe contents were assessed by LC-MS/MS. Note different scales on y-axes. For DSHN treated cells, no DSHN-OMe was detected (not shown). For DSHN-OMe treated cells, some DSHN was detected. ND signifies when compounds were not detected. (N=3/group. 4 h timepoint was run in an experiment independent of the 8 and 24 hr timepoints).
In order to better assess the potential cellular toxicity of DSHN-OMe, we treated BMDMs with increasing doses and measured their ability to reduce resazurin to resorufin (similar to the MTT viability assay).

For a further assay, the target named is T1, full length NR0B2 (Homo sapiens, UniProt Q15466).
T1 construct: A gene containing a hexa-His-TEV fusion with full length NR0B2 in pET21(a)+ was transformed in E. coli BL21(DE3); hexa-His with TEV site; made in house; host or cells: E. coli BL21(DE3)
T1 sequence (Q15466 1-257): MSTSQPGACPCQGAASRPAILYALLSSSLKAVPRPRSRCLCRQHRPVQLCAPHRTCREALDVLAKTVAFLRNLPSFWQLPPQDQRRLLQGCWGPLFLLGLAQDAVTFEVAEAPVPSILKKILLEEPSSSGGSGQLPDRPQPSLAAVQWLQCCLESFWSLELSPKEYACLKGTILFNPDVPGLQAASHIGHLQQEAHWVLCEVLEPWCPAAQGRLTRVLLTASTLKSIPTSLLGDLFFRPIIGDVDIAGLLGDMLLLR
Briefly: Thermal shift assay with recombinant NR0B2. In kind it is binding. The following applies: 1 mM ligand, 6 μM purified NR0B2; apo/unliganded 46.74±0.22. On the procedure:
Protein expression, purification, and thermal shift assay. A gene containing a hexa-His-TEV fusion with full length NR0B2 in pET21(a)+ was transformed in E. coli BL21(DE3). A single colony was used to inoculate a 100 mL starter culture of LB broth containing 100 μg/mL ampicillin, which was allowed to grow overnight with shaking at 37° C. This starter culture was used to inoculate flasks containing autoinducing media, which were grown at 37° C. with shaking until they reached an OD^600 of 0.8. Subsequently, the temperature was reduced to 16° C. and cells were allowed to grow for another 24 hours. After harvesting by centrifugation, cells were resuspended at 15 mL/g cell paste in a buffer comprised of 25 mM HEPES pH 8.0, 250 mM NaCl, 20 mM imidazole pH 8.0, 5% glycerol, 0.5 mM TCEP, and Roche EDTA-free protease inhibitor cocktail. Cells were lysed by sonication then centrifuged at 18,000×g for 30 minutes to remove insoluble material. The lysate was loaded onto a gravity flow Ni-NTA column, washed with 5 column volumes (CVs) of resuspension buffer, and protein was eluted using the resuspension buffer supplemented with 500 mM imidazole. Collected protein was dialyzed overnight in the resuspension buffer without imidazole then concentrated and purified on a Superdex 200 HiLoad 200 16/600 size exclusion column. […]

Assay [1] concerns dendritic cells from MMTV-PyMT tumors. Kind of assay: DCs (CD11B+; CD11C+) isolated from MMTV-PyMT tumors, treated ex vivo. The format is cell-based, mouse. An excerpt:
FIG. 3A-3F. DSHN, a tool small molecule agonist of NR0B2 reduces macrophage/dendritic cell induced Treg expansion and tumor growth in murine models. […] (B) Dendritic cells (left-CD11B^+; CD11C^+) and CD4^+ T cells (right) were isolated from MMTV-PyMT tumors by FACS, and treated with vehicle or DSHN for 3d. The resulting frequency of Treg (CD4^+; CD25^+; FoxP3^+) was quantified by flow cytometry (right graph), (N=3-5/group, t test). […] The percentage of divided CD8+ T cells in the second round was quantified. (D) DSHN increases efficacy of αPDL1 therapy on orthotopic E0771 tumors. An optimal number of E0771 cells were grafted into FoxP3-EGFP mice and allowed to grow until tumors reached 100 mm^3. Mice were euthanized on day 19 (waterfall plot, Fisher's exact test). (E) DSHN increases efficacy of αPDL1 therapy on orthotopic 4T1 tumors. 4T1 cells were orthotopically grafted into mice and allowed to establish for 5d prior to treatment start. Mice were euthanized on day 16 (waterfall plot, Fisher's exact test). (F) DSHN reduces metastatic outgrowth of 4T1 tumors and enhances efficacy of αPDL1 compared to placebo (p) (2-way ANOVA followed by Šidák's multiple comparison test for day 16). 4T1 cells were grafted intravenously, and lung metastatic lesions allowed to establish for 3d before treatment commenced. At the end of the study, lungs were removed and imaged ex vivo, quantified data indicated (N=10, 1-way ANOVA followed by Newman-Keuls multiple comparison test). Representative luciferase images shown to the right. * or different letters denote P<0.05 using indicated statistical test.
Since myeloid cells are thought to have been uniquely polarized within the tumor microenvironment, and in order to determine whether DSHN could overcome this, we isolated DCs (CD11B^+; CD11C^+) from MMTV-PyMT tumors. […] Cd4^+ T cells expanded in co-culture with DSHN pre-treated BMDMs had decreased suppressive capacity in terms of secondary CD8+ expansion (FIG. 3C).

As for `CCN(CC)S(=O)(=O)c1cccc2cc(C(=O)OC)c(O)cc12` [DSHN-OMe, Methyl 5-(N,N-diethylsulfamoyl)-3-hydroxy-2-naphthoate], the “Suppressiveness of expanded T cells towards second set of naïve T cells (CD8+ expansion)” value with CD8+ T cell expansion was “less suppressive”. Also, the “NR0B2 thermal melt temperature (TM)” value at full length NR0B2 was found to be 46.92±0.17 °C.

As for `CCN(CC)S(=O)(=O)c1cccc2cc(C(=O)O)c(O)cc12` [DSHN, reference compound], the “Treg expansion, tumor DCs co-cultured with CD4+ T cells” value in assay [1] is given as “decreased expansion of Treg cells”. Also, the “PD-L1 positivity of tumor DCs” value in assay [1] (cultured with DSHN followed by LPS and IFNγ) was “decreased PD-L1 positivity”. Moreover, in assay [1] (versus vehicle treated DCs from the same tumor), the “Viability of tumor DCs” value is on record as “increased viability”. In the assay with CD8+ T cell expansion, the “Suppressiveness of expanded T cells towards second set of naïve T cells (CD8+ expansion)” value was “less suppressive”. Also, on full length NR0B2, the “NR0B2 thermal melt temperature (TM)” value came to 46.34±0.51 °C.
